Measured values as given in patent US10196668B2, “Reagents and methods for screening MPS I, II, IIIA, IIIB, IVA, VI, and VII” (University of Washington through its Center for …, priority 2013, dated 2019).
Where a name gives a salt, the structure may show the parent alone. One block for each molecule: values may come before it.

Columns and labels:
[1] = biological target: T1, iduronate-2-sulfatase (MPS-II enzyme) (Homo sapiens, UniProt P22304); assay: MPS-II enzyme assay with dried blood spot punch, tandem mass spectrometry; assay type: biochemical
T1 construct: from tissue; host or cells: dried blood spot (3 mm punch)
T1 sequence (P22304 34-550): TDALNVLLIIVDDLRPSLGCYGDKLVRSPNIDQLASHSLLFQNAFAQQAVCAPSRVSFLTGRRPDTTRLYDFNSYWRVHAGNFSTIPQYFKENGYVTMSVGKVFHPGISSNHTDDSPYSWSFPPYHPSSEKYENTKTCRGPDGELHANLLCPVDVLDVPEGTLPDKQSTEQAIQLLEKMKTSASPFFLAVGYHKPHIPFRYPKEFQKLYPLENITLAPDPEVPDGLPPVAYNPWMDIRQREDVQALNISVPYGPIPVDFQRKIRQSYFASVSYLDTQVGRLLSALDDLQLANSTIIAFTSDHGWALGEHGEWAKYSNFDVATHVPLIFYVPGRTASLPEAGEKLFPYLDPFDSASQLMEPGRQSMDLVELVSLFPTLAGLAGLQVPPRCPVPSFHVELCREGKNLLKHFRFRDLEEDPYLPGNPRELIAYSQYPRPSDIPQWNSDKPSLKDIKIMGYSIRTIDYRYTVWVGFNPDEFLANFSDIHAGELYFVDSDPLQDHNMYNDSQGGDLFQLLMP
Description: The original and alternative MPS-II substrates were compared in side-by-side enzyme assays as follows: 1 mM substrate, 5 uM internal standard in 30 uL of buffer (100 mM ammonium formate, pH 4.0, 7.5 mM barium(II) acetate, 5.0 mM cerium(III) acetate). A 3 mm punch of a dried blood spot was added, and the mixtures were incubated with shaking for 16 hours at 37 deg C. The reactions were quenched by addition of 200 uL of 44 mM citric acid followed by addition of 400 uL ethyl acetate and 100 uL of water. After mixing up and down a few times with the pipet, the samples were centrifuged (10 min at 3000 rpm) to separate the liquid layers. A 200 uL portion of the upper ethyl acetate layer was transferred to a new well, and solvent was removed by evaporation with a stream of oil-free air. The residue was taken up in 100 uL of methanol/5 mM aqueous ammonium formate (80/20, v/v) and infused into the tandem mass spectrometer. The barium and cerium salts are present to precipitate free sulfate and phosphate present in the dried blood spot since these anions cause production inhibition of the MPS-II enzyme. The citric acid is used to acidify the mixture so that the carboxylate of the iduronic acid portion of the MPS-II product and internal standard is protonated and is extracted into ethyl acetate. […]

[2] = biological target: T2, alpha-L-iduronidase (MPS-I enzyme) (Homo sapiens, UniProt P35475); assay: MPS-I enzyme assay with dried blood spot punch, LC/MSMS; assay type: biochemical
T2 construct: from tissue; host or cells: dried blood spot (3 mm punch)
T2 sequence (P35475 28-653): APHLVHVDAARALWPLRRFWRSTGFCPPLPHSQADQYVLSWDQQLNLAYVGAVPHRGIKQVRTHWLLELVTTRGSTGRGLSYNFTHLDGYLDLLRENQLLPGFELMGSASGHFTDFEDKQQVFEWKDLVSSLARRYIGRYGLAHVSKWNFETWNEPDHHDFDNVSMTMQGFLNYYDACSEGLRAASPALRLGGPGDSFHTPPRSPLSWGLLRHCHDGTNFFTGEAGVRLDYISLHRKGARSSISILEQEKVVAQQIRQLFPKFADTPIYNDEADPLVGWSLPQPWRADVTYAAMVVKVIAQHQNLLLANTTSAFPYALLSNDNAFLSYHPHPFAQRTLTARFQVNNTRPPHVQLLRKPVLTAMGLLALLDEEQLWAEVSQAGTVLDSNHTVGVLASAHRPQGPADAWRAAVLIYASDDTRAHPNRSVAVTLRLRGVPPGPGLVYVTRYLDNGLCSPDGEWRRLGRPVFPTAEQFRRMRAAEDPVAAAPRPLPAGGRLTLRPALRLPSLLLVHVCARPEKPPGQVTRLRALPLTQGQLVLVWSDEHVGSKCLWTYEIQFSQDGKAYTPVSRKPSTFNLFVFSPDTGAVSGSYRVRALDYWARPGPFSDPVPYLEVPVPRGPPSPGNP
Description: The original and alternative MPS-I substrates were compared in side-by-side enzyme assays as follows: 0.5 mM substrate, 3.5 uM internal standard in 30 uL of buffer (100 mM ammonium formate, pH 4.0). A 3 mm punch of a dried blood spot was added, and the mixtures were incubated with shaking for 16 hours at 37 deg C. The reactions were quenched by addition 120 uL of acetonitrile. The wells were centrifuged, and 120 uL of supernatant was transferred to a new well. The sample was diluted by addition of 120 uL of water, and 10 uL was injected onto the LC/MSMS system. The LC and MS/MS conditions are as published (Spacil, Z., Tatipaka, H., Barcenas, M., Scott, C. R., Turecek, F., Gelb, M. H. (2012) “High-Throughput Assay of 9 Lysosomal Enzymes for Newborn Screening.” Clinical Chemistry., 59 (3), […]). A blank assay is also carried out in which a blood-free 3 mm punch of filter paper is substituted for the dried blood spot. The blank is incubated and processed as above.

[3] = tested on: N-acetylgalactosamine-6-sulfatase (GALNS); assay: GALNS (MPS-IVA) assay with beta-NGA and Z-PUG-NAc, UHPLC-MS/MS; assay type: biochemical, human
Description: (§1) Experiment 1. A 3 mm punch of a dried blood spot from a random newborn is incubated with 0.03 mL of assay cocktail consisting of 1 mM GALNS substrate in 50 mM ammonium formate pH 4.0 containing 7.5 mM barium acetate, 5.0 mM cerium acetate, 1 mM Z-PUG-NAc, and 0.01 mg of bacterial beta-N-acetylgalactosaminidase. The mixture also contains 0.005 mM internal standard. After 16 hrs at 37° C. with shaking, the mixture is quenched with 0.12 mL of acetonitrile and the sample plate is centrifuged to pellet the precipitate. Supernatant (0.12 mL) is transferred to a new plate, and 0.12 mL of water is added. The plate is placed on the autosampler of the UHPLC-MS/MS instrument (Waters Xevo TQ MS/MS with a Waters Acquity UHPLC system). A portion of the sample (0.01 mL) is injected, and the GALNS product (substrate minus sulfate), the internal standard, and the aglycones derived from the GALNS product and internal standard are quantified by multiple reaction monitoring (MS/MS). Note the internal standard added, like the GALNS product, is converted to its aglycone by the addition of bacterial beta-N-acetylgalactosaminidase.
(§2) Experiment 2. Experiment 2 is the same as Experiment 1 but uses a punch of filter paper (no blood). Most of the internal standard is converted to the aglycone showing that the added beta-NGA is working. The amount of aglycone is only 42,000, about 10-fold lower than that seen in the presence of blood. […] Furthermore when a dried blood spot from a confirmed Morquio A patient is used, the amount of aglycone is similar to that seen in the absence of blood (45,000) showing that the assay is working to detect only the GALNS present in blood from a non-affected individual.
(§3) Experiment 3. […] As expected, most of the internal standard is not converted to its aglycone, because is no beta-NAG and any hexosaminidase A coming from the blood is blocked by Z-PUG-NAc. The amount of GALNS product is 121,000 and the amount of aglycone is 42,900.
(§4) Experiment 4. Experiment 4 is the same as Experiment 3, but without blood. […] Thus, most of the 121,000 product counts in Experiment 3 is due to GALNS. The product counts in Experiment 3 cannot be due to hexosaminidase A, because only beta-NGA generates the aglycone. The amount of aglycone in Experiments 3 and 4 are similar, and this represents aglycone present in the GALNS substrate as a contaminant.
(§5) Experiment 5. […] Most of the internal standard is converted to its aglycone as expected because beta-NGA is present. The signal for aglycone is 1,350,000, much larger than in Experiment 1.
(§6) Experiment 6. Experiment 6 contains blood but no beta-NGA and no Z-PUG-NAc. The amount of GALNS product is 110,000 instead of 25,100 as in Experiment 5, which is due to the action of GALNS on the GALNS substrate. Because beta-NGA is absent, only a small amount of GALNS product is converted to aglycone, but the amount of aglycone remains high at 1,110,000. This is because of the action of hexosaminidase A in the blood on GALNS substrate in the absence of Z-PUG-NAc.
(§7) Experiments 7 and 8. Experiments 7 and 8 are with filter paper (no blood). […] As expected, most of the internal standard is converted to aglycone in Experiment 7, but not in Experiment 8. […] These can be removed by a further round of purification of GALNS substrate.

[4] = biological target: T3, N-acetylgalactosamine-6-sulfatase (GALNS) (Homo sapiens, UniProt P34059); assay: as above; assay type: biochemical
T3 construct: Representative assays use dried blood spots on newborn screening cards as a source of GALNS; from tissue; host or cells: dried blood spot from a random newborn (3 mm punch)
T3 sequence (P34059 27-522): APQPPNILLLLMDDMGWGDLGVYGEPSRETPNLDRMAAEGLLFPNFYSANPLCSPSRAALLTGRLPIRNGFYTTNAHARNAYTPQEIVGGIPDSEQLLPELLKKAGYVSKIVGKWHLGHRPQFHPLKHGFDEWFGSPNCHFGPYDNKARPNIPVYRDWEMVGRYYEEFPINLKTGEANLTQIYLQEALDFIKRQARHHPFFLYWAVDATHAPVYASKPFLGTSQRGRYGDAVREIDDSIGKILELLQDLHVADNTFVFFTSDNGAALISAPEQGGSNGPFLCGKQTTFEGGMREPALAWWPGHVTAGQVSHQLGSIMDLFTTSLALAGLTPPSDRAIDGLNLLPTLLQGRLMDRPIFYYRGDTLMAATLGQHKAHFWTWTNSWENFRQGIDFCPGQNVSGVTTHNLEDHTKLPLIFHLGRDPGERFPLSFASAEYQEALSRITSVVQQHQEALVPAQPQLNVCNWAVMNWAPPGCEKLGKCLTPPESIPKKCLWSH
Description: as §1, §2, §3, §4, §5, §6, §7

[5] = activity with dried blood spot punch to that with blood-free punch
[6] = Expt. 1: 3 mm dried blood spot punch, 1 mM Z-PUG-NAc, 0.01 mg beta-NGA
[7] = Expt. 2: 3 mm filter paper punch (no blood), 1 mM Z-PUG-NAc, 0.01 mg of bacterial enzyme
[8] = Expt. 3: 3 mm dried blood spot punch, 1 mM Z-PUG-NAc, no beta-NGA
[9] = Expt. 4: 3 mm filter paper punch (no blood), 1 mM Z-PUG-NAc, no beta-NGA
[10] = Expt. 5: 3 mm dried blood spot punch, 0.01 mg beta-NGA, no Z-PUG-NAc
[11] = Expt. 6: 3 mm dried blood spot punch, Nothing added (no beta-NGA, no Z-PUG-NAc)
[12] = Expt. 7: 3 mm filter paper punch (no blood), 0.01 mg beta-NGA, no Z-PUG-NAc
[13] = Expt. 8: 3 mm filter paper punch (no blood), Nothing added

Enzymatic Activity ([1]; 1 mM substrate, 3 mm dried blood spot punch, pH 4.0, 16 hours at 37 deg C): 6 umole/hr/L blood
blood-no blood assay ratio [1, 5]: 53
SMILES: CCCCC(=O)N(CCCCCCNC(=O)c1ccccc1)CCC(=O)Nc1ccc(OC2OC(C(=O)O)C(O)C(O)C2OS(=O)(=O)O)cc1 (stereo not shown) [Alternative MPS-II]

Enzymatic Activity ([2]; 0.5 mM substrate, 3 mm dried blood spot punch, pH 4.0, 16 hours at 37 deg C): 2.5 umole/hr/L blood
blood-no blood assay ratio [2, 5]: 34
SMILES: CC(=O)N(CCCCCCNC(=O)c1ccccc1)CCC(=O)Nc1ccc(OC2OC(C(=O)O)C(O)C(O)C2O)cc1 (stereo not shown) [Alternative MPS-I]

GALNS internal standard peak area [3, 6]: 278
internal standard aglycone peak area [3, 6]: 54,400
GALNS internal standard peak area [3, 7]: 3,290
internal standard aglycone peak area [3, 7]: 15,900
GALNS internal standard peak area [3, 8]: 23,500
internal standard aglycone peak area [3, 8]: 940
GALNS internal standard peak area [3, 9]: 14,700
internal standard aglycone peak area [3, 9]: 412
GALNS internal standard peak area [3, 10]: 852
internal standard aglycone peak area [3, 10]: 49,200
GALNS internal standard peak area [3, 11]: 17,900
internal standard aglycone peak area [3, 11]: 17,100
GALNS internal standard peak area [3, 12]: 1,920
internal standard aglycone peak area [3, 12]: 22,200
GALNS internal standard peak area [3, 13]: 12,100
internal standard aglycone peak area [3, 13]: 648
SMILES: [2H]c1c([2H])c([2H])c(C(=O)NCCCCCN(CCC(=O)Nc2ccc(OC3OC(CO)C(O)C(O)C3NC(C)=O)cc2)C(=O)CCCC)c([2H])c1[2H] (stereo not shown) [GALNS internal standard]

SMILES: CCCCC(=O)N(CCCCCNC(=O)c1ccccc1)CCC(=O)Nc1ccc(OC2OC(COS(=O)(=O)O)C(O)C(O)C2NC(C)=O)cc1 [GALNS substrate, Sodium ((2R,3R,4R,5R,6S)-5-acetamido-6(4(3(N (5-benzamidopentyl)-pentanamido)propanamido)phenoxy)-3,4-dihydroxytetrahydro-2H-pyran-2-yl)methyl sulfate]
GALNS product (substrate without sulfate) peak area [4, 6]: 46,100
aglycone peak area (product without sugar) [4, 6]: 411,000
GALNS product (substrate without sulfate) peak area [4, 8]: 121,000
GALNS product (substrate without sulfate) peak area [4, 10]: 25,100
GALNS product (substrate without sulfate) peak area [4, 11]: 110,000
GALNS product (substrate without sulfate) peak area [3, 7]: 422
aglycone peak area (product without sugar) [3, 7]: 42,000
aglycone peak area (product without sugar) [3, 8]: 42,900
GALNS product (substrate without sulfate) peak area [3, 9]: 753
aglycone peak area (product without sugar) [3, 9]: 22,700
aglycone peak area (product without sugar) [3, 10]: 1,350,000
aglycone peak area (product without sugar) [3, 11]: 1,110,000
GALNS product (substrate without sulfate) peak area [3, 12]: 253
aglycone peak area (product without sugar) [3, 12]: 19,800
GALNS product (substrate without sulfate) peak area [3, 13]: 820
aglycone peak area (product without sugar) [3, 13]: 14,500
amount of aglycone (peak area) ([3]; dried blood spot from a confirmed Morquio A patient, 1 mM Z-PUG-NAc, 0.01 mg beta-NGA): 45,000
